Experimental data reported in the NIST ThermoML archive (doi:10.1021/je060371g).
Numbers after ± are expanded uncertainties.

Conditions: Fluid (supercritical or subcritical phases), Buoyancy - hydrostatic balance with magnetic suspension - one sinker

FC(F)Cl [chlorodifluoromethane]
specific volume [m3/kg]
Conditions | 298.2 K | 323.2 K | 348.2 K | 373.2 K | 423.2 K | 473.2 K | 523.2 K | 573.2 K
10000 kPa | 0.000815 ± 7e-06 | 0.00087 ± 7e-06 | 0.000955 ± 8e-06 | 0.001091 ± 1.4e-05 | 0.002006 ± 4.1e-05 | 0.003216 ± 6.8e-05 | 0.004117 ± 9.3e-05 | 0.004957 ± 0.00011
20000 kPa | 0.000787 ± 6e-06 | 0.000831 ± 7e-06 | 0.000887 ± 7e-06 | 0.000967 ± 9e-06 | 0.001169 ± 2.2e-05 | 0.001531 ± 4.2e-05 | 0.001932 ± 5.6e-05 | 0.00244 ± 6.7e-05
30000 kPa | 0.000771 ± 6e-06 | 0.00081 ± 7e-06 | 0.000852 ± 7e-06 | 0.000907 ± 8e-06 | 0.001037 ± 9e-06 | 0.00121 ± 1.3e-05 | 0.001431 ± 1.8e-05 | 0.001751 ± 2.5e-05
40000 kPa | 0.000755 ± 6e-06 | 0.00079 ± 6e-06 | 0.000828 ± 7e-06 | 0.000875 ± 7e-06 | 0.000973 ± 8e-06 | 0.001089 ± 1e-05 | 0.001241 ± 1.2e-05 | 0.001393 ± 1.5e-05
50000 kPa | 0.000743 ± 6e-06 | 0.000773 ± 6e-06 | 0.000807 ± 7e-06 | 0.000842 ± 7e-06 | 0.000923 ± 8e-06 | 0.001015 ± 8e-06 | 0.001126 ± 9e-06 | 0.001258 ± 1.1e-05
75000 kPa | 0.000717 ± 6e-06 | 0.000743 ± 6e-06 | 0.000768 ± 6e-06 | 0.000797 ± 6e-06 | 0.000856 ± 7e-06 | 0.000922 ± 7e-06 | 0.000987 ± 8e-06 | 0.00105 ± 9e-06
100000 kPa | 0.000698 ± 6e-06 | 0.000715 ± 6e-06 | 0.000742 ± 6e-06 | 0.000765 ± 6e-06 | 0.000814 ± 7e-06 | 0.000867 ± 7e-06 | 0.00092 ± 7e-06 | 0.000968 ± 8e-06
125000 kPa | 0.000682 ± 5e-06 | 0.000699 ± 6e-06 | 0.000719 ± 6e-06 | 0.000741 ± 6e-06 | 0.000784 ± 6e-06 | 0.00083 ± 7e-06 | 0.000872 ± 7e-06 | 0.000911 ± 7e-06
150000 kPa | 0.00067 ± 5e-06 | 0.000683 ± 5e-06 | 0.000701 ± 6e-06 | 0.000722 ± 6e-06 | 0.000759 ± 6e-06 | 0.000797 ± 6e-06 | 0.000835 ± 7e-06 | 0.00087 ± 7e-06
175000 kPa | 0.000657 ± 5e-06 | 0.00067 ± 5e-06 | 0.000686 ± 6e-06 | 0.000705 ± 6e-06 | 0.000738 ± 6e-06 | 0.000772 ± 6e-06 | 0.000808 ± 7e-06 | 0.00084 ± 7e-06
200000 kPa | 0.000646 ± 5e-06 | 0.00066 ± 5e-06 | 0.000674 ± 5e-06 | 0.000689 ± 6e-06 | 0.000721 ± 6e-06 | 0.000754 ± 6e-06 | 0.000785 ± 6e-06 | 0.000814 ± 7e-06
225000 kPa | 0.000638 ± 5e-06 | 0.000651 ± 5e-06 | 0.000663 ± 5e-06 | 0.000677 ± 5e-06 | 0.000707 ± 6e-06 | 0.000735 ± 6e-06 | 0.000764 ± 6e-06 | 0.00079 ± 6e-06
250000 kPa | 0.00063 ± 5e-06 | 0.000643 ± 5e-06 | 0.000655 ± 5e-06 | 0.000667 ± 5e-06 | 0.000695 ± 6e-06 | 0.00072 ± 6e-06 | 0.000744 ± 6e-06 | 0.000767 ± 6e-06
275000 kPa | 0.000624 ± 5e-06 | 0.000635 ± 5e-06 | 0.000646 ± 5e-06 | 0.000658 ± 5e-06 | 0.000682 ± 5e-06 | 0.000705 ± 6e-06 | 0.000728 ± 6e-06 | 0.000749 ± 6e-06
300000 kPa | 0.000617 ± 5e-06 | 0.000628 ± 5e-06 | 0.000639 ± 5e-06 | 0.00065 ± 5e-06 | 0.000673 ± 5e-06 | 0.000694 ± 6e-06 | 0.000714 ± 6e-06 | 0.000732 ± 6e-06
325000 kPa | 0.000611 ± 5e-06 | 0.000621 ± 5e-06 | 0.000632 ± 5e-06 | 0.000642 ± 5e-06 | 0.000661 ± 5e-06 | 0.000683 ± 5e-06 | 0.000698 ± 6e-06 | 0.000717 ± 6e-06
350000 kPa | 0.000606 ± 5e-06 | 0.000616 ± 5e-06 | 0.000625 ± 5e-06 | 0.000636 ± 5e-06 | 0.000655 ± 5e-06 | 0.000671 ± 5e-06 | 0.000687 ± 6e-06 | 0.000704 ± 6e-06
375000 kPa | 0.0006 ± 5e-06 | 0.00061 ± 5e-06 | 0.000619 ± 5e-06 | 0.000629 ± 5e-06 | 0.000645 ± 5e-06 | 0.000661 ± 5e-06 | 0.000676 ± 5e-06 | 0.000692 ± 6e-06
400000 kPa | 0.000596 ± 5e-06 | 0.000605 ± 5e-06 | 0.000614 ± 5e-06 | 0.000623 ± 5e-06 | 0.000638 ± 5e-06 | 0.000652 ± 5e-06 | 0.000666 ± 5e-06 | 0.00068 ± 5e-06
425000 kPa | 0.000591 ± 5e-06 | 0.0006 ± 5e-06 | 0.000608 ± 5e-06 | 0.000617 ± 5e-06 | 0.000631 ± 5e-06 | 0.000644 ± 5e-06 | 0.000658 ± 5e-06 | 0.000671 ± 5e-06
450000 kPa | 0.000587 ± 5e-06 | 0.000595 ± 5e-06 | 0.000603 ± 5e-06 | 0.000612 ± 5e-06 | 0.000625 ± 5e-06 | 0.000637 ± 5e-06 | 0.000649 ± 5e-06 | 0.000663 ± 5e-06
475000 kPa | 0.000582 ± 5e-06 | 0.00059 ± 5e-06 | 0.000598 ± 5e-06 | 0.000606 ± 5e-06 | 0.000619 ± 5e-06 | 0.000629 ± 5e-06 | 0.00064 ± 5e-06 | 0.000651 ± 5e-06
500000 kPa | 0.000579 ± 5e-06 | 0.000586 ± 5e-06 | 0.000594 ± 5e-06 | 0.000602 ± 5e-06 | 0.000614 ± 5e-06 | 0.000623 ± 5e-06 | 0.000633 ± 5e-06 | 0.000643 ± 5e-06
